According to patent publication US6589970B2, “6-(aryl-amido or aryl-amidomethyl)-naphthalen-2-yloxy-acidic derivatives as inhibitors of plasminogen activator inhibitor type-1 (PAI-1)” (Wyeth, priority 2001, dated 2003):
Where a name gives a salt, the structure may show the parent alone.

How the values were obtained:
[1] = target: T1, recombinant human plasminogen activator inhibitor-1 (PAI-1) (Homo sapiens, UniProt P05121); experiment: Primary Screen for the PAI-1 Inhibition; type: biochemical; conditions: for inhibition at 100 µM: 100 μM test compound, read-out: % Inhib. 100 μM; for inhibition at 25 µM: 25 μM test compound, read-out: % Inhib. 25 μM
T1 construct: purchased Molecular Innovations, Royal Oak, Mich
Procedure: Test compounds are dissolved in DMSO at a final concentration of 10 mM, then diluted 100× in physiologic buffer. The inhibitory assay is initiated by the addition of the test compound (1-100 μM final concentration, maximum DMSO concentration of 0.2%) in a pH 6.6 buffer containing 140 nM recombinant human plasminogen activator inhibitor-1 (PAI-1; Molecular Innovations, Royal Oak, Mich.). Following a 1 hour incubation at room temperature, 70 nM of recombinant human tissue plasminogen activator (tPA) is added, and the combination of the test compound, PAI-1 and tPA is incubated for an additional 30 minutes. Following the second incubation, Spectrozyme-tPA (American Diagnostica, Greenwich, Conn.), a chromogenic substrate for tPA, is added and absorbance read at 405 nm at 0 and 60 minutes. Relative PAI-1 inhibition is equal to the residual tPA activity in the presence of the test compound and PAI-1. Control treatments include the complete inhibition of tPA by PAI-1 at the molar ratio employed (2:1), and the absence of any effect of the test compound on tPA alone.

human PAI-1 = human PAI-1 (Homo sapiens, UniProt P05121); experiment: Assay for Determining IC50 of Inhibition of PAI-1 (Antibody Assay); type: biochemical; conditions: active PAI-1 bound to tPA-coated plate
Procedure: This assay is based upon the non-SDS dissociable interaction between tPA and active PAI-1. Assay plates are initially coated with human tPA (10 μg/ml). The test compounds are dissolved in DMSO at 10 mM, then diluted with physiologic buffer (pH 7.5) to a final concentration of 1-50 μM. The test compounds are incubated with human PAI-1 (50 ng/ml) for 15 minutes at room temperature. The tPA-coated plate is washed with a solution of 0.05% Tween 20 and 0.1% BSA, then the plate is blocked with a solution of 3% BSA. An aliquot of the test compound/PAI-1 solution is then added to the tPA-coated plate, incubated at room temperature for 1 hour, and washed. Active PAI-1 bound to the plate is assessed by adding an aliquot of a 1:1000 dilution of the 33B8 monoclonal antibody against human PAI-1, and incubating the plate at room temperature for 1 hour (Molecular Innovations, Royal Oak, Mich. The plate is again washed, and a solution of goat anti-mouse IgG-alkaline phosphatase conjugate is added at a 1:50,000 dilution in goat serum. The plate is incubated 30 minutes at room temperature, washed, and a solution of alkaline phosphatase substrate is added. The plate is incubated 45 minutes at room temperature, and color development is determined at OD405nm. The quantitation of active PAI-1 bound to tPA at varying concentrations of the test compound is used to determine the IC50. Results are analyzed using a logarithmic best-fit equation. The assay sensitivity is 5 ng/ml of human PAI-1 as determined from a standard curve ranging from 0-100 ng/ml.

T1 sequence (P05121 24-402): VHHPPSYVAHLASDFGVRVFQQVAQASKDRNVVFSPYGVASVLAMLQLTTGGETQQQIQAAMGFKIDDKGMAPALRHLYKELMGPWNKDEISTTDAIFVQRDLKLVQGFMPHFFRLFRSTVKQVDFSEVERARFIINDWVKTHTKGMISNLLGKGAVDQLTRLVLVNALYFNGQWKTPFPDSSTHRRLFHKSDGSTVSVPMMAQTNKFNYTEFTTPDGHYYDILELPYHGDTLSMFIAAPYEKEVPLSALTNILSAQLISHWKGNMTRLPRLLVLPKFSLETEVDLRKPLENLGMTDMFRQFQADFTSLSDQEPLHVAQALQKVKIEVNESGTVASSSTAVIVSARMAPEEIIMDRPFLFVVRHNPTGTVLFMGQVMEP
Sequence of human PAI-1 (P05121 24-402): as above

CCCCc1oc2ccccc2c1C(=O)Nc1ccc2c(Br)c(OCC(=O)O)ccc2c1 (as salt: sodium) [Example 6, {1-Bromo-6-[(2-butyl-benzofuran-3-carbonyl)-amino]-naphthalen-2-yloxy}-acetic acid sodium salt]
melting point: 284 to 287 °C

CCCCc1oc2ccccc2c1C(=O)NCc1ccc2cc(OCc3nnn[nH]3)ccc2c1 (as salt: sodium) [Example 8, 2-Butyl-benzofuran-3-carboxylic acid [6-(1H-tetrazol-5-ylmethoxy)-naphthalen-2-ylmethyl]-amide sodium salt]
melting point: 207 to 210 °C

CCCCc1oc2ccccc2c1C(=O)NCc1ccc2c(Br)c(OCC(=O)O)ccc2c1 (as salt: sodium) [Example 19, Sodium; (1-bromo-6-{[(2-butyl-benzofuran-3-carbonyl)-amino]-methyl}-naphthalen-2-yloxy)-acetate]
melting point: 260 °C

CCCCc1oc2ccccc2c1C(=O)NCc1ccc2c(-c3ccc(OC)cc3)c(OCc3nnn[nH]3)ccc2c1 (as salt: sodium) [Example 25, 2-Butyl-benzofuran-3-carboxylic [5-(4-methoxy phenyl)-6-(1H-tetrazol-5-ylmethoxy)-naphthalen-2-ylmethyl]-amide, sodium salt]
melting point: 147 to 152 °C

CCCCc1oc2ccccc2c1C(=O)Nc1ccc2c(Br)c(OCc3nn[nH]n3)ccc2c1 [Example 5, 2-Butyl-benzofuran-3-carboxylic acid [5-bromo-6-(2H-tetrazol-5-ylmethoxy)-naphthalen-2-yl]-amide]
inhibition at 100 µM [1]: 47%
melting point: 242 to 245 °C

CCCCc1oc2ccccc2c1C(=O)NCc1ccc2cc(OCC(=O)[O-])ccc2c1.[Na+] [Example 9, Sodium; (6-{[(2-butyl-benzofuran-3-carbonyl)-amino]-methyl}-naphthalen-2-yloxy)-acetate]
inhibition at 25 µM [1]: 28%
inhibition at 100 µM [1]: 89%
melting point: > 275 °C

O=C(O)COc1ccc2cc(CNC(=O)c3cnn(-c4ccc(Cl)cc4)c3C(F)(F)F)ccc2c1 [Example 14, [6-({[1-(4-Chloro-phenyl)-5-trifluoromethyl-1H-pyrazole-4-carbonyl]-amino}-methyl)-naphthalen-2-yloxy]-acetic acid]
inhibition at 25 µM [1]: 1%
inhibition at 100 µM [1]: 70%
IC50 (human PAI-1): 51 µM

CCCc1c(C(=O)NCc2ccc3c(Br)c(OCc4nnn[nH]4)ccc3c2)cnn1-c1ccccc1 [Example 22, 1-Phenyl-5-propyl-1H-pyrazole-4-carboxylic acid [5-bromo-6-(1H-tetrazol-5-ylmethoxy)-naphthalen-2-ylmethyl]-amide]
inhibition at 25 µM [1]: 12%
inhibition at 100 µM [1]: 70%
melting point: 219 to 220 °C

CCCCc1oc2ccccc2c1C(=O)NCc1ccc2c(-c3ccc(C)cc3)c(OCc3nnn[nH]3)ccc2c1 [Example 23, 2-Butyl-benzofuran-3-carboxylic acid [6-(1H-tetrazol-5-ylmethoxy)-5-p-tolyl-naphthalen-2-ylmethyl]-amide]
inhibition at 100 µM [1]: 48%
melting point: 162 to 166 °C

CCCCc1oc2ccccc2c1C(=O)NCc1ccc2c(-c3ccc(C(C)(C)C)cc3)c(OCc3nnn[nH]3)ccc2c1 [Example 27, 2-Butyl-benzofuran-3-carboxylic acid [5-(4-tert-butyl-phenyl)-6-(1H-tetrazol-5-ylmethoxy)-naphthalen-2-ylmethyl]-amide]
inhibition at 100 µM [1]: 39%
melting point: 75 to 78 °C

CCCCc1c(C(=O)N(C)Cc2ccc3c(Br)c(OCc4nnn[nH]4)ccc3c2)c2ccccc2n1C [Example 36, 2-Butyl-1-methyl-1H-indole-3-carboxylic acid [5-bromo-6-(1H-tetrazol-5-ylmethoxy)-naphthalen-2-ylmethyl]-methyl-amide]
inhibition at 25 µM [1]: 4%
inhibition at 100 µM [1]: 46%
melting point: 147 to 149 °C

CCCCc1c(C(=O)N(C)Cc2ccc3c(Br)c(OCc4nnn[nH]4)ccc3c2)oc2ccccc12 [Example 39, 3-Butyl-benzofuran-2-carboxylic acid [5-bromo-6-(1H-tetrazol-5-ylmethoxy)-naphthalen-2-ylmethyl]-methyl-amide]
inhibition at 25 µM [1]: 24%
inhibition at 100 µM [1]: 69%
melting point: 180 to 183 °C

Cc1c(C(=O)N(C)Cc2ccc3c(Br)c(OCc4nnn[nH]4)ccc3c2)oc2ccccc12 [Example 41, 3-Methyl-benzofuran-2-carboxylic acid [5-bromo-6-(1H-tetrazol-5-ylmethoxy)-naphthalen-2-ylmethyl]-methyl-amide]
inhibition at 25 µM [1]: 49%
inhibition at 100 µM [1]: 91%
melting point: 164 to 166 °C

Cc1c(C(=O)NCc2ccc3c(Br)c(OCc4nnn[nH]4)ccc3c2)oc2ccccc12 [Example 43, 3-Methyl-benzofuran-2-carboxylic acid [5-bromo-6-(1H-tetrazol-5-ylmethoxy)-naphthalen-2-ylmethyl]-amide]
inhibition at 25 µM [1]: 47%
inhibition at 100 µM [1]: 71%
melting point: 212 to 215 °C

Cc1c(C(=O)NCc2ccc3c(Br)c(OC(Cc4ccccc4)C(=O)O)ccc3c2)oc2ccccc12 (centres unmarked) [Example 44, 2-(1-Bromo-6-{[(3-methyl-benzofuran-2-carbonyl)-amino]-methyl}-naphthalen-2-yloxy)-3-phenyl-propionic acid]
melting point: 110 to 113 °C

CN(Cc1ccc2c(Br)c(OCc3nnn[nH]3)ccc2c1)C(=O)c1oc2ccccc2c1CCc1ccccc1 [Example 45, 3-Phenethyl-benzofuran-2-carboxylic acid [5-bromo-6-(1H-tetrazol-5-ylmethoxy)-naphthalen-2-ylmethyl]-methyl-amide]
inhibition at 100 µM [1]: 17%
melting point: 56 to 59 °C

CN(Cc1ccc2c(Br)c(OC(Cc3ccccc3)C(=O)O)ccc2c1)C(=O)c1oc2ccccc2c1CCc1ccccc1 (centres unmarked) [Example 46, 2-(1-Bromo-6-{[methyl-(3-phenethyl-benzofuran-2-carbonyl)-amino]-methyl}-naphthalen-2-yloxy)-3-phenyl-propionic acid]
inhibition at 25 µM [1]: 58%
inhibition at 100 µM [1]: 88%
melting point: 87 to 90 °C

CN(Cc1ccc2c(Br)c(OCC(=O)O)ccc2c1)C(=O)c1oc2ccccc2c1CCc1ccccc1 [Example 47, (1-Bromo-6-{[methyl-(3-phenethyl-benzofuran-2-carbonyl)-amino]-methyl}-naphthalen-2-yloxy)-acetic acid]
inhibition at 25 µM [1]: 59%
inhibition at 100 µM [1]: 90%
melting point: 119 to 122 °C

O=C(O)COc1ccc2cc(CNC(=O)c3cc(-c4ccc(C(F)(F)F)cc4)oc3C(F)(F)F)ccc2c1 [Example 82, [6-({[2-Trifluoromethyl-5-(4-trifluoromethyl-phenyl)-furan-3-carbonyl]-amino}methyl)-naphthalen-2-yloxy]-acetic acid]
inhibition at 25 µM [1]: 9%
inhibition at 100 µM [1]: 68%

O=C(O)COc1ccc2cc(CNC(=O)c3ccccc3CCc3ccccc3)ccc2c1 [Example 83, {6-[(2-Phenethyl-benzoylamino)-methyl]-naphthalen-2-yloxy}-acetic acid]
inhibition at 100 µM [1]: 45%

O=C(O)COc1ccc2cc(CNC(=O)C3(c4ccc(Cl)cc4)CCCC3)ccc2c1 [Example 84, [6-({[1-(4-Chloro-phenyl)-cyclopentanecarbonyl]-amino}-methyl)-naphthalen-2-yloxy]-acetic acid]
inhibition at 100 µM [1]: 34%

O=C(O)COc1ccc2cc(CNC(=O)c3ccc(-c4cccc(C(F)(F)F)c4)o3)ccc2c1 [Example 85, [6-({[5-(3-Trifluoromethyl-phenyl)-furan-2-carbonyl]-amino}-methyl)-naphthalen-2-yloxy]-acetic acid]
inhibition at 100 µM [1]: 34%

CC(C)(C)c1cc(C(=O)NCc2ccc3cc(OCC(=O)O)ccc3c2)cc(C(C)(C)C)c1 [Example 86, {6-[(3,5-Di-tert-butyl-benzoylamino)methyl]-naphthalen-2-yloxy}-acetic acid]
inhibition at 100 µM [1]: 33%

O=C(O)COc1ccc2cc(CNC(=O)C3(c4ccccc4)CCCC3)ccc2c1 [Example 87, (6-{[(1-Phenyl-cyclopentanecarbonyl)-amino]-methyl}-naphthalen-2-yloxy)-acetic acid]
inhibition at 100 µM [1]: 32%
